The source of these data is patent US20050266515A1, “Glyceraldehyde 3-phosphate dehydrogenase-S (GAPDHS), a glycolytic anzyme expressed only in male germ cells, is a target for male contraception” (The University of North Carolina at Chapel Hill, priority 2002, published 2005).

Broadly, the IC50 is the point on the concentration scale where inhibition reaches its midpoint. A word on the Ki: it is a measure of affinity in units of concentration, obtained from inhibition or displacement.

Common to all, as to format: biochemical
The target in test [1] is T1, truncated form of human GAPDHS (Mus musculus, UniProt Q64467).
T1 construct: tGapdhs, amino acids 106-438; made in house; host or cells: E. coli K-12 strain DS112 (gapA-deficient)
Nature of the test: Inhibition of dehydrogenase activity of recombinant truncated GAPDHS (NADH accumulation at 340 nm).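 Note: recombinant enzyme (1 µg) in glycine–phosphate–EDTA buffer pH 8.9, inhibitors tested from 1 µM to 3 mM, activity relative to DMSO-only controls taken as 100%.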

In a further test the target is T2, recombinant human GAPDH (Mus musculus, UniProt P16858).
T2 construct: made in house; host or cells: E. coli K-12 strain DS112 (gapA-deficient)
As to the kind of experiment: Inhibition of dehydrogenase activity of recombinant somatic GAPDH (NADH accumulation at 340 nm). The conditions noted are these: 1 hour preincubation at 4° C., 0.5 mM NAD, 0.5 mM glyceraldehyde-3-phosphate. From the text: In subsequent studies to test inhibitors identified in computer docking studies, recombinant mouse Gapdh and the truncated form of Gapdhs (tGapdhs, amino acids 106-438) were expressed in DS112 gapA-deficient E. coli strain K-12 (available from the Yale University E. coli Genetics Stock Center, New Haven, Conn., United States of America). The truncated Gapdhs lacks the proline-rich N-terminus, but contains all the amino acids required for enzyme activity. The recombinant proteins were purified and activities were determined with a standard enzyme assay (Schmalhausen et al., 1997). Using this assay, the dehydrogenase activity of Gapdh and tGapdhs was monitored at 340 nm by measuring the accumulation of NADH.
The reaction mixture (200 μl) contained 50 mM glycine, 50 mM potassium phosphate, 5 mM EDTA (pH 8.9), 1 μg of recombinant enzyme (Gapdh or tGapdhs), 0.5 mM NAD, and 0.5 mM glyceraldehyde-3-phosphate. Activities of Gapdh and tGapdh were compared in the presence of various concentrations of inhibitors. Compounds identified as potential inhibitors in modeling studies as described herein were obtained from Ryan Scientific (Mt. Pleasant, S.C., United States of America). Stocks for each compound were prepared by dissolving 5 mg in 50 μl of DMSO. These stocks were divided into 10 μl aliquots and frozen at −20° C.
To monitor inhibition, each compound (1 μM to 3 mM) was added to the above reaction mixture (without NAD and glyceraldehyde-3-phosphate) and incubated for 1 hour at 4° C. After the 1 hour incubation period, NAD and glyceraldehyde-3-phosphate were added to start the reaction. In each assay, controls containing equal amounts of DMSO were included to determine values for 100% activity. The IC50 for each compound was calculated as the concentration required to reduce dehydrogenase activity to 50% of the activity of control samples.

For test [2], the system named is truncated form of human GAPDHS. Nature of the test: Inhibition of dehydrogenase activity of recombinant truncated GAPDHS (NADH accumulation at 340 nm).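 Note: recombinant enzyme (1 µg) in glycine–phosphate–EDTA buffer pH 8.9, inhibitors tested from 1 µM to 3 mM, activity relative to DMSO-only controls taken as 100%.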 The following applies: comparison of IC50 values of Tables 7, 9 and 11.
The target of test [3] is T3, truncated Gapdhs (tGapdhs; amino acids 106-438 of mouse Gapdhs) (Mus musculus, UniProt Q64467).
T3 construct: containing amino acids 106-438 of mouse Gapdhs; GST (cleaved yes); made in house
Nature of the test: Inhibition of recombinant tGapdhs by adenine nucleotides (NAD reduction at 340 nm, 96-well format). The following applies: for inhibition of tGapdhs: recombinant enzyme, result in words.

For another test, the target named is T4, Recombinant mouse Gapdh (Mus musculus, UniProt P16858).
T4 construct: GST (cleaved yes); made in house
Nature of the test: Inhibition of recombinant Gapdh by adenine nucleotides (NAD reduction at 340 nm, 96-well format). The conditions noted are these: for inhibition of Gapdhs (the other recombinant enzyme beside tGapdhs): result in words.

Where [4] appears, read: Table 9, 1 hour preincubation at 4° C., 0.5 mM NAD, 0.5 mM glyceraldehyde-3-phosphate, read-out: IC50 GAPDHS.
[5] abbreviates: Table 7, 1 hour preincubation at 4° C., 0.5 mM NAD, 0.5 mM glyceraldehyde-3-phosphate, read-out: IC50 GAPDHS.
Setting [6] is: competitive inhibitors of NAD cofactor binding, read-out: calculated Ki for tGapdhs.
Where [7] appears, read: competitive inhibitors of NAD cofactor binding, read-out: calculated Ki for Gapdh.
[8] abbreviates: Table 11, 1 hour preincubation at 4° C., 0.5 mM NAD, 0.5 mM glyceraldehyde-3-phosphate, read-out: IC50 GAPDHS.

Where two headings read alike, the source gives them in different places.

T4 sequence (P16858 whole entry): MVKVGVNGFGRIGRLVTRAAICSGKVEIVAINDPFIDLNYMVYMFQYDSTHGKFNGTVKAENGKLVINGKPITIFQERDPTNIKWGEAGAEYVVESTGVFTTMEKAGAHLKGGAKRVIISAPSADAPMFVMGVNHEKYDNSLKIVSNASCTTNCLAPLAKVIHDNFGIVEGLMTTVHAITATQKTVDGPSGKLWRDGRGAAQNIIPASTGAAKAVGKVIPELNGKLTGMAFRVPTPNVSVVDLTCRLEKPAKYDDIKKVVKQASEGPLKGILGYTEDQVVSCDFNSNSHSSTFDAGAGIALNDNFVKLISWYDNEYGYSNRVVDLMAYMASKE
T2 sequence (P16858 whole entry): as above
T1 sequence (Q64467 108-440): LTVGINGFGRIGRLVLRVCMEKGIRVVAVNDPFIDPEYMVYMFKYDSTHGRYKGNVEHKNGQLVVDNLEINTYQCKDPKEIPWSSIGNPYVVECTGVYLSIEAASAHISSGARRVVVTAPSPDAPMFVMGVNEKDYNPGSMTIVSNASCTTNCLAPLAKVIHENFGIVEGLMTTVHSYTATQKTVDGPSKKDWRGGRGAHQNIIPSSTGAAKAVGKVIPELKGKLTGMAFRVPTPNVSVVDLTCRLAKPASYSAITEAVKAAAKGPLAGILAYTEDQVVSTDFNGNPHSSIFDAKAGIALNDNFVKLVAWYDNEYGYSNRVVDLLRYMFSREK
T3 sequence (Q64467 108-440): as above

As for `COc1cc(C=NNC(=O)Cn2cnc3c(=O)n(C)c(=O)n(C)c32)cc([N+](=O)[O-])c1O` [LT_00444480, (1,3-Dimethyl-2,6-dioxo-1,2,3,6-tetrahydro-purin-9-yl)-acetic acid (4-hydroxy-3-methoxy-5-nitro-benzylidene)-hydrazide], the half-maximal inhibitory concentration (IC50) (in test [1] (setting [4]); on recombinant human GAPDH (Table 9)) was 0.15 mM throughout.
As to `CC1=NN(C(N)=N[N+](=O)[O-])C(=O)C1` [LT_00249157, 3-methyl-5-oxo-pyrazole-1-nitro-carboxamidine], the IC50 in test [1] (setting [5]) amounted to 0.1 mM. Moreover, in test [2], the “selective inhibition: Gapdhs compared to Gapdh” value (“selective inhibition: Gapdhs” for short) was “greater inhibition of Gapdhs than Gapdh”.
On to `Cc1ccc(S(=O)(=O)c2c(N)n(CC(O)c3ccc([N+](=O)[O-])cc3)c3nc4ccccc4nc23)cc1` (stereo not drawn) [Compound T0501_7749, 2-[2-Amino-3-(toluene-4-sulfonyl)-pyrrolo[2,3-b]quinoxalin-1-yl]-1-(4-nitro-phenyl)-ethanol], for which the results for the IC50 (in test [1] (setting [5]); on recombinant human GAPDH (Table 7)) were 0.1 mM and above 1 mM, respectively. The “selective inhibition: Gapdhs” value in test [2] is “greater inhibition of Gapdhs than Gapdh”.
As for `O=C(CN1C(=O)c2ccccc2C1=O)Nc1cc(C(=O)O)cc(C(=O)O)c1` [LT_00379844, 5-[2-(1,3-Dioxo-1,3-dihydro-isoindol-2-yl)-acetylamino]-isophthalic acid], the IC50 in test [1] (setting [4]) is above 1 mM.
As for `CN(C)c1ccc(C(CC(=O)c2c(O)c3ccccc3n(C)c2=O)NCc2ccncc2)cc1` (stereo not drawn) [LT_00232244, 3-{3-(4-Dimethylamino-phenyl)-3-[(pyridine-4-ylmethyl)-amino]-propionyl}-4-hydroxy-1-methyl-1H-quinolin-2-one], the IC50 in test [1] (setting [5]) was above 1 mM; at recombinant human GAPDH (Table 7), 0.35 mM.
Take `Nc1ncnc2c1ncn2[C@@H]1O[C@H](COP(=O)(O)OP(=O)(O)OP(=O)(O)O)[C@@H](O)[C@H]1O` [ATP, adenosine triphosphate]: the values for the Ki (in test [3] (setting [6]); on Recombinant mouse Gapdh (setting [7])) were 6.48 mM and 1.27 mM, respectively. Besides, the “inhibition of Gapdhs (the other recombinant enzyme beside tGapdhs)” value (shortened to “inhibition of Gapdhs”) on Recombinant mouse Gapdh was “dose-dependent inhibition”.
For `O=c1ccn([C@@H]2O[C@H](COP(=O)(O)OP(=O)(O)OP(=O)(O)O)[C@@H](O)[C@H]2O)c(=O)[nH]1` [UTP], the “inhibition of tGapdhs” value in test [3] is “did not inhibit”. The “inhibition of Gapdhs” value at Recombinant mouse Gapdh is given as “did not inhibit”.
As for “3-(1H-Imidazolo-4-yl)-2-[3-(4-sulfamoyl-benzyl)-thioureido]-propionic acid [LT_00729760]”, in test [1] (setting [4]), the 50% inhibitory concentration (IC50) is 2 mM.
As to `C=CC(=O)NCNC(=O)C=C` [LT_00050115, N-(Acryloylamino-methyl)-acrylamide], the IC50 (in test [1]; on recombinant human GAPDH (Table 11)) was above 1 mM in each case.
Regarding `Nc1ncnc2c1ncn2[C@@H]1O[C@H](CO)[C@@H](O)[C@H]1O` [adenosine], the “inhibition of tGapdhs” value in test [3] was “did not inhibit”. Also, on Recombinant mouse Gapdh, the “inhibition of Gapdhs” value is “did not inhibit”.
For the compound “4-(1-Benzyl-IH-indol-3y1)-3,4-dihydro-benzo[4,5]imidazo[1,2-a][1,3,5]triazin-2-ylamine [Compound T0501_7933]”, the IC50 was 0.01 to 0.025 mM in test [1] (setting [4]) and above 0.5 mM on recombinant human GAPDH (Table 9). In test [2], the “selective inhibition: Gapdhs” value was “greater inhibition of Gapdhs than Gapdh”.
As to `CC(CC(=O)Nc1ccc(Cl)c(Cl)c1)=NNC(=O)c1cc2ccccc2cc1O` [LT_00587256, N-(3,4-Dichloro-phenyl)-3-[(3-hydroxy-naphthalene-2-carbonyl)-hyrazono]-butyramide], in test [1] (setting [4]), the half-maximal inhibitory concentration (IC50) was found to be 5 mM.
For the compound `Nc1ncnc2c1ncn2[C@@H]1O[C@H](COP(=O)(O)O)[C@@H](O)[C@H]1O` [AMP], the Ki is 3.13 mM in test [3] (setting [6]) and 1.61 mM on Recombinant mouse Gapdh (setting [7]). Moreover, in test [3], the “inhibition of tGapdhs” value is reported as “dose-dependent inhibition”. For the same compound, the “inhibition of Gapdhs” value on Recombinant mouse Gapdh was “dose-dependent inhibition”.
As for `Nc1nonc1-c1nc2ccccc2n1CC(=O)N/N=C\c1cc2c(cc1[N+](=O)[O-])OCO2` [LT_00237350, [2-(4-Aminofurazan-3-yl)-benzoimidazol-1-yl]-acetic acid [1-(6-nitro-benzo[1,3]dioxol-5-yl)-meth-(Z)ylidene]-hydrazide], the IC50 in test [1] (setting [4]) is 2 mM.
Take “4-Amino-N-(4-methoxy-phenyl)-3-nitro-benzenesulfonamide-cyclohexyl-urea [Compound T0506_9350]”: at recombinant human GAPDH (Table 9), the IC50 is above 1 mM.
As to `Clc1ccc(N=c2ssnc2Cl)c(Cl)c1` [Compound 11K_064, 2,4-dichloro-N-(4chloro-5H-1,2,3-dithiazol-5-yliden)aniline], the half-inhibitory concentration (IC50) in test [1] (setting [5]) is 0.5 mM; at recombinant human GAPDH (Table 7) it was 0.1 mM.
As for `CCOC(=O)Cc1nnc2c(Nc3ccc(OC)cc3)nc3nonc3n12` [LT00105955, [5-(4-Methoxy-phenylamino)-2-oxa-1,3,4,6,7,8a-hexaaza-as-indacen-8-yl]-acetic acid ethyl ester], the IC50 (in test [1] (setting [4]); at recombinant human GAPDH (Table 9)) was above 1 mM in each case.
As for `Nc1ncnc2c1ncn2[C@@H]1O[C@H](COP(=O)(O)OP(=O)(O)O)[C@@H](O)[C@H]1O` [ADP], the inhibition constant (Ki) was 3.97 mM in test [3] (setting [6]) and 1.79 mM on Recombinant mouse Gapdh (setting [7]). In addition, the “inhibition of tGapdhs” value in test [3] was “dose-dependent inhibition”. Also, the “inhibition of Gapdhs” value at Recombinant mouse Gapdh is “dose-dependent inhibition”.
`O=C(NNc1ccc(S(=O)(=O)Nc2ccccc2)cc1[N+](=O)[O-])Nc1cccc(C(F)(F)F)c1` [Compound T0506_1274, 2-[4-(anilinosulfonyl)-2-nitrophenyl]-N-[3-(trifluoromethyl)phenyl]hydrazinecarboxamide]: the half-maximal inhibitory concentration (IC50) in test [1] (setting [4]) was 1.75 mM.
Take `CNc1cc([N+](=O)[O-])ccc1OC` [Compound T0512_4753, (2-Methoxy-5-nitro-phenyl)-methyl-amine]: the 50% inhibitory concentration (IC50) (in test [1] (setting [8]); at recombinant human GAPDH (Table 11)) was above 1 mM throughout.
Regarding `O=C(COC(=O)CCc1c[nH]c2ccccc12)Nc1ccc(S(=O)(=O)N2CCOCC2)cc1` [Compound T0511_4909, 3-(1H-Indol-3-yl)-propionic acid [4-(morpholine-4-sulfonyl)-phenylcaramoyl]-methyl ester], the half-maximal inhibitory concentration (IC50) in test [1] (setting [5]) is 0.5 mM; at recombinant human GAPDH (Table 7) it was above 1 mM. Further, the “selective inhibition: Gapdhs” value in test [2] was “greater inhibition of Gapdhs than Gapdh”.
For the compound `COc1cc(C=NNc2ccc([N+](=O)[O-])cc2[N+](=O)[O-])ccc1OCC(=O)Nc1ccc(C)c(C)c1` [LT_01178124, N-(3,4-Dimethyl-phenyl)-2-{4-[(2,4-dinitro-phenyl)-hydrazonomethyl]-2-methoxy}-acetamide], in test [1] (Table 9, 1 hour preincubation at 4° C., 0.5 mM NAD, 0.5 mM glyceraldehyde-3-phosphate), the “IC50 GAPDHS” value is recorded as “not soluble”.
For the compound `Nc1ncnc2c1ncn2[C@@H]1O[C@@H]2COP(=O)(O)O[C@H]2[C@H]1O` [cAMP, cyclic AMP], in test [3], the Ki came out at 3.33 mM and the “inhibition of tGapdhs” value is on record as “dose-dependent inhibition”. At Recombinant mouse Gapdh, the Ki came to 1.5 mM and the “inhibition of Gapdhs” value was “dose-dependent inhibition”.
Turning to `OCc1nc2ccccc2[nH]1` [Compound T0504_1251, (1H-Benzoimidazol-2-yl)-methanol], the IC50 in test [1] (setting [5]) was above 3 mM.
Regarding `O=[N+]([O-])c1ccc2oc3ccccc3c2c1` [Compound T0515_4928, 2-Nitro-dibenzofuran], in test [1] (setting [8]), the IC50 was 0.1 mM. Moreover, in test [2], the “selective inhibition: Gapdhs” value was “greater inhibition of Gapdhs than Gapdh”.
On to `C=Cn1cncc1C(=O)C(F)(F)F` [Compound T0507_5482, 2,2,2-Trifluoro-1-(3vinyl-3H-imidazol-4-yl)-ethanone], for which the half-maximal inhibitory concentration (IC50) (in test [1] (setting [5]); on recombinant human GAPDH (Table 7)) was above 1 mM in each case.
